Test results taken from US20020169140A1, “Combination therapy for reduction of toxicity of chemotherapeutic agents” (priority 2001, published 2002).
“Also recorded” adds a separate entry of the source.

Legend:
[1] = test system: lung adenocarcinoma cell line LXFA 526L; experiment: Monolayer proliferation inhibition, modified propidium iodide assay; assay type: cell-based; conditions: for in vitro activity of the agent alone: single agent, stated for both cell lines; for In vitro activity (Test/Control %): 4 days exposure, median of 5 experiments; for tumour effects (words): circiliol alone at 3 μg/ml
[2] = test system: large cell lung cancer line LXFL 529L; experiment: as above; assay type: cell-based; conditions: for in vitro activity of the agent alone: single agent, stated for both cell lines; for In vitro activity (Test/Control %): 4 days exposure, median of 5 experiments; for tumour effects (words): circiliol alone at 3 μg/ml
[3] = LXFA 529L, 0 μg/ml circiliol, median of 2-5 experiments
[4] = LXFA 529L, +3 μg/ml circiliol, median of 2-5 experiments

**Q.** With `Nc1ccn([C@@H]2O[C@H](CO)[C@@H](O)C2(F)F)c(=O)n1` [gemcitabine, 2′, 2′-diflouro-2′-deoxycytidine, reference compound] as the compound, how does the “IC70 of gemcitabine alone” value ([1]; LXFA 526L, 0 μg/ml circiliol, median of 2-5 experiments) read?
**A.** Its value is 5.6 µg/mL.

**Q.** What about the “IC70 of gemcitabine alone” value ([1]; LXFA 526L, 0 μg/ml circiliol, median of 2-5 experiments, listed as Gemcitabine) of the same compound?
**A.** Its value is 5.7 µg/mL.

**Q.** And the IC50 ([1]; LXFA 526L, 0 μg/ml circiliol, median of 2-5 experiments, read-out: IC50 of gemcitabine alone)?
**A.** Its IC50 is 0.63 µg/mL.

**Q.** What about the “IC70 of gemcitabine in combination with circiliol” value (from here on “IC70 of gemcitabine in combination”) ([1]; LXFA 526L, +3 μg/ml circiliol, median of 2-5 experiments) of the same compound?
**A.** Its value is 0.87 µg/mL.

**Q.** What about the “IC70 of gemcitabine in combination” value ([1]; LXFA 526L, +30 μg/ml circiliol, median of 2-5 experiments) of the same compound?
**A.** The value was 0.58 µg/mL.

**Q.** What about the “fold increase of antitumour activity of gemcitabine (IC70 shift)” value ([1]; LXFA 526L, with 30 μg/ml circiliol) of the same compound?
**A.** The value was 10 fold.

**Q.** What about the “in vitro activity of the agent alone” value [1] of the same compound?
**A.** Its value is “potently active”.

**Q.** And the “IC50 of gemcitabine alone” value [2, 3]?
**A.** Its value is 0.355 µg/mL.

**Q.** What about the “IC70 of gemcitabine alone” value [2, 3] of the same compound?
**A.** Its value is 0.64 µg/mL.

**Q.** What about the “IC50 of gemcitabine in combination with circiliol” value [2, 4] of the same compound?
**A.** Its value is 0.039 µg/mL.

**Q.** What about the “IC70 of gemcitabine in combination” value [2, 4] of the same compound?
**A.** Its value is 0.076 µg/mL.

**Q.** And the “fold increase of antitumour activity of gemcitabine (IC70 shift)” value ([2]; LXFA 529L, with 30 μg/ml circiliol)?
**A.** The value was 19 fold.

**Q.** What about the IC50 ([2]; LXFL 529L, LXFA 529L, 0 μg/ml circiliol, median of 2-5 experiments, read-out: IC50 of gemcitabine alone) of the same compound?
**A.** Its IC50 is 0.36 µg/mL.

**Q.** And the “in vitro activity of the agent alone” value [2]?
**A.** Its value is “potently active”.

**Q.** With `COc1cc2oc(-c3ccc(O)c(O)c3)cc(=O)c2c(O)c1OC` [Circiliol, 6,7-dimethoxy-5,3′4′-trihydroxyflavone] as the compound, how does the “In vitro activity (Test/Control %)” value ([1]; LXFA 526L, circiliol 3 μg/ml) read?
**A.** The value was 93%.

**Q.** And the “In vitro activity (Test/Control %)” value ([1]; LXFA 526L, circiliol 30 μg/ml)?
**A.** The value was 53%.

**Q.** What about the “In vitro activity (Test/Control %)” value ([1]; LXFA 526L, circiliol 300 μg/ml) of the same compound?
**A.** The value was 55%.

**Q.** And the “tumour effects (words)” value [1]?
**A.** Its value is “inactive alone”.

**Q.** And the “tumour effects (words)” value ([1]; listed as circiliol)?
**A.** The value was “no tumour effects”.

**Q.** And the “inhibition of tumour growth in vitro” value ([1]; circiliol alone at 30 μg/ml)?
**A.** The value was 50%.

**Q.** What about the “antitumour activity in vitro” value ([1]; circiliol alone at <3 μg/ml) of the same compound?
**A.** Its value is “no antitumour activity”.

**Q.** What about the “in vitro activity of the agent alone” value [1] of the same compound?
**A.** Its value is “only moderately active; also recorded: low activity”.

**Q.** And the “In vitro activity (Test/Control %)” value ([2]; LXFA 529L, circiliol 3 μg/ml)?
**A.** The value was 102%.

**Q.** What about the “In vitro activity (Test/Control %)” value ([2]; LXFA 529L, circiliol 30 μg/ml) of the same compound?
**A.** The value was 49%.

**Q.** And the “In vitro activity (Test/Control %)” value ([2]; LXFA 529L, circiliol 300 μg/ml)?
**A.** Its value is 39%.

**Q.** What about the “tumour effects (words)” value [2] of the same compound?
**A.** The value was “inactive alone”.

**Q.** What about the “tumour effects (words)” value ([2]; listed as circiliol) of the same compound?
**A.** The value was “no tumour effects”.

**Q.** What about the “inhibition of tumour growth in vitro” value ([2]; circiliol alone at 30 μg/ml) of the same compound?
**A.** Its value is 50%.

**Q.** What about the “antitumour activity in vitro” value ([2]; circiliol alone at <3 μg/ml) of the same compound?
**A.** The value was “no antitumour activity”.

**Q.** What about the “in vitro activity of the agent alone” value [2] of the same compound?
**A.** Its value is “only moderately active; also recorded: low activity”.
